This note sets out measurements from ChEMBL document CHEMBL2203000, “Discovery of AC710, a Globally Selective Inhibitor of Platelet-Derived Growth Factor Receptor-Family Kinases” (ACS Med Chem Lett, 2012).

Activity calls are given as the source filed them. The calls are words filed in the database; no cut-off is given here.

Series [1] is described as follows: AUC in Sprague-Dawley rat plasma at 10 mg/kg, po by LC-MS/MS analysis. The format is ADME, organism-based. The arrangement: dose 10 mg/kg, route oral. The following applies: Sprague-Dawley, plasma.
Series [2] is described as follows: Clearance in Sprague-Dawley rat plasma at 1 mg/kg, iv and 10 mg/kg, po by LC-MS/MS analysis. The format is ADME, organism-based.
Series [3] can be described thus: Oral bioavailability in Sprague-Dawley rat plasma at 10 mg/kg by LC-MS/MS analysis. In kind it is ADME, organism-based. The following applies: Sprague-Dawley, plasma.
Series [4] in a line: AUC in po dosed CD-1 mouse by LC-MS/MS analysis. The format is ADME, organism-based. The note with it: plasma.
Series [5] concerns Rattus norvegicus. Put plainly: Toxicity in rat at 200 mg/kg administered for 7 days. In kind it is organism-based. The following applies: in vivo, 168 h. On the set-up: dose 200 mg/kg.
Series [6] has as its target Cytochrome P450 2C19 (Homo sapiens, UniProt P33261). Put plainly: Inhibition of CYP2C19. In kind it is ADME.
Series [7] has as its target T1, Cytochrome P450 1A2 (Homo sapiens, UniProt P05177).
T1 sequence (P05177 whole entry): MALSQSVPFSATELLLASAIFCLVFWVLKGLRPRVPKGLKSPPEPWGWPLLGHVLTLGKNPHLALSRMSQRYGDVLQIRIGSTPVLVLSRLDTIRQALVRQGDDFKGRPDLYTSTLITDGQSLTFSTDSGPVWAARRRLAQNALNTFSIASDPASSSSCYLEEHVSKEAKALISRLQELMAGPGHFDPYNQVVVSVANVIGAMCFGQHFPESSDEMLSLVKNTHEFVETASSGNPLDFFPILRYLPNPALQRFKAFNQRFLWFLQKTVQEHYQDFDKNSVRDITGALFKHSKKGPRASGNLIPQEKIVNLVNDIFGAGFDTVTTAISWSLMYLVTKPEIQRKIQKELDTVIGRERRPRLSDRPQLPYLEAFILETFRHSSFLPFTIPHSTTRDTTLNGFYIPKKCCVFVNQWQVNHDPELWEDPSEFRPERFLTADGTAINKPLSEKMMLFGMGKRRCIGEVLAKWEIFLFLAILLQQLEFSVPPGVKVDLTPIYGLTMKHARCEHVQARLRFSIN
Put plainly: Inhibition of CYP1A2. The format is ADME.

Series [8] has as its system Rattus norvegicus. Put plainly: Toxicity in rat assessed as effect on body weight at 800 mg/kg administered for 7 days. The following applies: in vivo, 168 h. On the set-up: dose 800 mg/kg. In kind it is organism-based.
The subject of series [9] is Rattus norvegicus. Put plainly: Toxicity in rat assessed as diarrhea at 800 mg/kg administered for 7 days. In kind it is organism-based. On the set-up: dose 800 mg/kg. The note with it: in vivo, 168 h.
Series [10] concerns the target T2, Mast/stem cell growth factor receptor Kit (Homo sapiens, UniProt P10721). Put plainly: Binding affinity to KIT expressed in HEK-293 cells. The format is cell-based, HEK293.
Series [11] relates to Rattus norvegicus. Put plainly: Toxicity in rat assessed as mortality at 800 mg/kg administered for 7 days. In kind it is organism-based. The arrangement: dose 800 mg/kg. The following applies: in vivo, 168 h.
Series [12] addresses Cytochrome P450 3A4 (Homo sapiens, UniProt P08684). Put plainly: Inhibition of CYP3A4. In kind it is ADME.
Series [13] has as its target T2, Mast/stem cell growth factor receptor Kit. Put plainly: Inhibition of KIT phosphorylation in human H526 cells. The format is cell-based.
Series [14] is described as follows: Antitumor activity against mouse M-NFS-60 cells xenografted in CD-1 nude mouse assessed as inhibition of tumor growth at 100 mg/kg, po measured after 4 of tumor implantation. In kind it is functional. The note with it: read-out: TGI.
A short description of series [15]: Antitumor activity against mouse M-NFS-60 cells xenografted in CD-1 nude mouse assessed as inhibition of tumor growth at 30 mg/kg, po measured after 4 of tumor implantation. In kind it is functional. The note with it: read-out: TGI.
Series [16] addresses Cytochrome P450 2D6 (Homo sapiens, UniProt P10635). Put plainly: Inhibition of CYP2D6. The format is ADME.
Series [17] deals with Cytochrome P450 2C9 (Homo sapiens, UniProt P11712). Put plainly: Inhibition of CYP2C9. In kind it is ADME.
Chain of Cytochrome P450 2C9 (P11712 whole entry): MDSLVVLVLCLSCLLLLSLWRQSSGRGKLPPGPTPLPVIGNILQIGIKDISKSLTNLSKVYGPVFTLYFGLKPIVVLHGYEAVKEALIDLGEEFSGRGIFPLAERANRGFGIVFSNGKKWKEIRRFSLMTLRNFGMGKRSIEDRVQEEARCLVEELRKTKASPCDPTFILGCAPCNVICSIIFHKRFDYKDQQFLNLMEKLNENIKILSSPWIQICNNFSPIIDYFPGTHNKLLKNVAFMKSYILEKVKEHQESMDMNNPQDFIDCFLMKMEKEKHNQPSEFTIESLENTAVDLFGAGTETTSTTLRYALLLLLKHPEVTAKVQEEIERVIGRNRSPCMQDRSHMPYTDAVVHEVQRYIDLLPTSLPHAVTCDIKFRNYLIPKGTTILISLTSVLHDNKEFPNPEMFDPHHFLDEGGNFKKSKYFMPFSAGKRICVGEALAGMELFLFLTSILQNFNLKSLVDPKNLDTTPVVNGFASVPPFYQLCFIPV
Series [18] concerns NFS-60. Put plainly: Antitumor activity against mouse M-NFS-60 cells xenografted in CD-1 nude mouse assessed as inhibition of tumor growth measured after 4 days of tumor implantation. In kind it is functional, cell-based.
Series [19] can be described thus: Aqueous solubility of the compound in water. In kind it is physicochemical.
A short description of series [20]: Antitumor activity against mouse M-NFS-60 cells xenografted in CD-1 nude mouse assessed as inhibition of tumor growth at 10 mg/kg, po measured after 4 of tumor implantation. The format is functional. The following applies: read-out: TGI.
Series [21] in a line: Aqueous solubility of the compound at pH 2 to 7.4. The note with it: buffer. The format is physicochemical.
Series [22] deals with MV4-11. Put plainly: Antitumor activity against human MV4-11 cells xenografted in SCID mouse assessed as complete reduction in tumor volume at 3 to 30 mg/kg for 2 weeks. The format is functional, organism-based.
Series [23] has as its system MV4-11. Put plainly: Antitumor activity against human MV4-11 cells xenografted in SCID mouse assessed as reduction in tumor volume at 0.3 mg/kg for 2 weeks. On the set-up: dose 0.3 mg/kg. The format is functional, organism-based.
The subject of series [24] is Mus musculus. Put plainly: Antiarthritic activity in collagen-induced arthritis mouse assessed as decrease in joint swelling and inflammation at 10 to 30 mg/kg, po for 15 days. The format is functional, organism-based.
In series [25] the test system is Mus musculus. Put plainly: Antiarthritic activity in po dosed collagen-induced arthritis mouse assessed as decrease in paw clinical scores administered for 15 days. In kind it is functional, organism-based.

T2 sequence (P10721 whole entry): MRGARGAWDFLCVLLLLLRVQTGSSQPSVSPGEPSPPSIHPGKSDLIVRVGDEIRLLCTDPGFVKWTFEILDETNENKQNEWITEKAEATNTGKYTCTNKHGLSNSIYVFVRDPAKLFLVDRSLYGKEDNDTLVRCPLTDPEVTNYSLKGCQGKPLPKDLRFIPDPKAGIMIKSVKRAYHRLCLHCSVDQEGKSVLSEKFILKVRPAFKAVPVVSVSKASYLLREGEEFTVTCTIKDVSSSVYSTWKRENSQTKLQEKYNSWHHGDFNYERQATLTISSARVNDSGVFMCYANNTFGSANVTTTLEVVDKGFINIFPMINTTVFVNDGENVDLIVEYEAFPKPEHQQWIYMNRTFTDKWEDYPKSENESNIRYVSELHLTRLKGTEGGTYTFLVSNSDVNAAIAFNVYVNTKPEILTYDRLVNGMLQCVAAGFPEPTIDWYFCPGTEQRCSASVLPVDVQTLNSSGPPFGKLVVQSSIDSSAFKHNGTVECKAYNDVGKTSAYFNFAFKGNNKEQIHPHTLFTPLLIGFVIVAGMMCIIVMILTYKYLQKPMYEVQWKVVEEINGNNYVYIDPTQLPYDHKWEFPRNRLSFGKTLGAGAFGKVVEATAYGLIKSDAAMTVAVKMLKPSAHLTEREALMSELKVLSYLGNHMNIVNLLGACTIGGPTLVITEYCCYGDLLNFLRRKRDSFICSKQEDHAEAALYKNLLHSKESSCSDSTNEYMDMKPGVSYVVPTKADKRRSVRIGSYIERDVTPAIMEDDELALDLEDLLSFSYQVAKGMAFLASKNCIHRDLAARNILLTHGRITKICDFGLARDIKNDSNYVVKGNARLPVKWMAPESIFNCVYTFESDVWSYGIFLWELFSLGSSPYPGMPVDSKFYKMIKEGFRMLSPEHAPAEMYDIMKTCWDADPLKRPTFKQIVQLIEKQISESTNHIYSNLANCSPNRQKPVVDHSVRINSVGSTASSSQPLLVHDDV
Chain of Cytochrome P450 2D6 (P10635 whole entry): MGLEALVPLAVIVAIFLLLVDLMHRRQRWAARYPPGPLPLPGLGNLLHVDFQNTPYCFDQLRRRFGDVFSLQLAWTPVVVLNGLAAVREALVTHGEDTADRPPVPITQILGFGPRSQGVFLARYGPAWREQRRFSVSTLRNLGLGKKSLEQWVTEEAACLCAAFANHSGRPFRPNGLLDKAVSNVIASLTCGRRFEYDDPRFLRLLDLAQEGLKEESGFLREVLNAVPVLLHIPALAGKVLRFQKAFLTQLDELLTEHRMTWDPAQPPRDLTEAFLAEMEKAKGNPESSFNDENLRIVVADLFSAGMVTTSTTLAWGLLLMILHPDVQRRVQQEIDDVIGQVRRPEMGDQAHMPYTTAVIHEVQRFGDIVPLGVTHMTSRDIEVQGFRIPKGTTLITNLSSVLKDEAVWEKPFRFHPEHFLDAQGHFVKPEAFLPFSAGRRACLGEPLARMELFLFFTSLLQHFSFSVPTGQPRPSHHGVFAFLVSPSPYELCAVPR
Chain of Cytochrome P450 3A4 (P08684 whole entry): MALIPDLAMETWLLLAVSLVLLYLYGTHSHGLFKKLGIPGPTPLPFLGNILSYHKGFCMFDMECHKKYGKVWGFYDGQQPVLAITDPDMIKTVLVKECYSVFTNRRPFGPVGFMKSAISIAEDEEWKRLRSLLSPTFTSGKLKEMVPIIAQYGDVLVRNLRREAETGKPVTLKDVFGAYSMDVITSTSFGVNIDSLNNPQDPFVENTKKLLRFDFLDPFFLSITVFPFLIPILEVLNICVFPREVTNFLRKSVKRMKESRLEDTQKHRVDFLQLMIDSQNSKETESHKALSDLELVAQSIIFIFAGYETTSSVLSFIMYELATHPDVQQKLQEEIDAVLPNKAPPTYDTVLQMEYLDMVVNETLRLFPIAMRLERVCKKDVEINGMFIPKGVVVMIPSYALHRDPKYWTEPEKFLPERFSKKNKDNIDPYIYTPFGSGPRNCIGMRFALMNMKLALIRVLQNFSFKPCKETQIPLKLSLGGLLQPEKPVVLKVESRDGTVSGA
Chain of Cytochrome P450 2C19 (P33261 whole entry): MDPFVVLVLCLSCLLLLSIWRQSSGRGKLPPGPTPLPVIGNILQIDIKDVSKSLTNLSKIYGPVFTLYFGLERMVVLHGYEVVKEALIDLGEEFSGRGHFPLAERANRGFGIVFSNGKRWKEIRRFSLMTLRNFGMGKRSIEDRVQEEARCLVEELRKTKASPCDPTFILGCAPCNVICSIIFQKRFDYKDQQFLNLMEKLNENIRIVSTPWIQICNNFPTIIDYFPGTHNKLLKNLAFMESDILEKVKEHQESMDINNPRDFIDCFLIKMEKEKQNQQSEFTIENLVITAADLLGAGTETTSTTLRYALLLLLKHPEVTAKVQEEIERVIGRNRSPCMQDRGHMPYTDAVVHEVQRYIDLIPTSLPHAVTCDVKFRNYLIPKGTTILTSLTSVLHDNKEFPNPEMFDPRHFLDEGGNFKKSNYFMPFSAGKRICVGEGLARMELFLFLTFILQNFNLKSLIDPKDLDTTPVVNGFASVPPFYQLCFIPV

For `CC(C)(C)c1cc(NC(=O)Nc2ccc(NC(=O)c3cc(OC4CCNCC4)ccn3)cc2)no1`, the AUC in series [1] stood at 0.4 µM·h. The compound also had a clearance in [2] of 35.8 mL/min/kg. For the same compound, the bioavailability in series [3] was 3%.

`CC1(C)CC(Oc2ccc(C(=O)Nc3ccc(NC(=O)Nc4cc(C(C)(C)C)on4)cc3)nc2)CC(C)(C)N1`: the AUC in series [1] was determined as 2.4 µM·h. In addition, in [2], the clearance came out at 11 mL/min/kg. In series [3], this compound returned a bioavailability of 8%.

In the case of `CN1C(C)(C)CC(Oc2ccc(C(=O)Nc3ccc(NC(=O)Nc4cc(C(C)(C)C)on4)cc3)nc2)CC1(C)C` [listing 1 of 2 here], the AUC was 65.8 µM·h in series [4] and 9.1 µM·h in [1]. Besides, the Activity entry in [5] is “Non-toxic”; in series [8], “Toxic”; in series [9], “Toxic”; in series [11] it was “Toxic”. In addition, the IC50 is above 40 µM in [6]; above 40 µM in series [7]; above 40 µM in [12]; 8 nM in series [13]; above 40 µM in [16]; above 40 µM in series [17]. In series [2], this compound registered a clearance of 10.9 mL/min/kg. The compound further yielded a Kd in series [10] of 1.1 nM. Further, the inhibition in vivo at 100 mg/kg in [14] was 92%. In series [3], this compound registered a bioavailability of 31.5%. In series [15], the inhibition in vivo at 30 mg/kg turned out to be 82%.

Turning to `CN1C(C)(C)CC(Oc2ccc(C(=O)Nc3ccc(NC(=O)Nc4cc(C(C)(C)C)on4)cc3)nc2)CC1(C)C` [listing 2 of 2 here], in series [18], the inhibition result was “Dose-dependent effect”.

For `CC(C)(C)c1cc(NC(=O)Nc2ccc(NC(=O)c3ccc(OC4CCN(C(C)(C)C)CC4)cn3)cc2)no1`, in series [1], the AUC was found to be 5 µM·h. Also, the clearance in series [2] is 15 mL/min/kg. The same compound displayed a bioavailability in [3] of 22%.

`CCN1CCC(Oc2ccc(C(=O)Nc3ccc(NC(=O)Nc4cc(C(C)(C)C)on4)cc3)nc2)CC1.CS(=O)(=O)O` had a solubility in [19] of 1130 µg/mL.

`CC(C)N1CCC(Oc2ccc(C(=O)Nc3ccc(NC(=O)Nc4cc(C(C)(C)C)on4)cc3)nc2)CC1` yielded an AUC in series [1] of 3.5 µM·h. The clearance in series [2] amounted to 16 mL/min/kg. This compound also displayed a bioavailability in [3] of 17.5%.

As to `CCN1CCC(Oc2ccc(C(=O)Nc3ccc(NC(=O)Nc4cc(C(C)(C)C)on4)cc3)nc2)CC1` [listing 1 of 2 here], the AUC came out at 9.9 µM·h in series [4] and 4.8 µM·h in series [1]. Further, the Activity entry in [5] is listed as “Non-toxic”; in series [9], “Toxic”. In series [20], the inhibition in vivo at 10 mg/kg was found to be 31%. The IC50 in series [6] was above 40 µM; in series [7], above 40 µM; in series [12] it was above 40 µM; in series [13], 7.9 nM; in series [16], above 40 µM; in series [17], above 40 µM. The compound further gave a clearance in [2] of 25.8 mL/min/kg. Besides, the Kd in series [10] came to 0.6 nM. In series [14], the inhibition in vivo at 100 mg/kg was 73%. In [3], this compound gave a bioavailability of 20%. Besides, the inhibition in vivo at 30 mg/kg in series [15] worked out at 46%.

`Cc1ccnc(C(=O)Nc2ccc(NC(=O)Nc3cc(C(C)(C)C)on3)cc2)c1` returned an AUC in series [1] of 0.5 µM·h. The clearance in series [2] worked out at 37.9 mL/min/kg. Besides, in [3], the bioavailability came to 4%.

Regarding `CC(C)(C)c1cc(NC(=O)Nc2ccc(NC(=O)c3cc4ccccc4cn3)cc2)no1`, in [1], the AUC was found to be 0.8 µM·h. The compound also showed a clearance in series [2] of 47 mL/min/kg. In [3], this compound yielded a bioavailability of 9%. In series [21], this compound came in with a solubility below 5 µg/mL.

In series [19], `CCN1C(C)(C)CC(Oc2ccc(C(=O)Nc3ccc(NC(=O)Nc4cc(C(C)(C)C)on4)cc3)nc2)CC1(C)C.CS(=O)(=O)O` had a solubility above 1000 µg/mL.

With `CCN1C(C)(C)CC(Oc2ccc(C(=O)Nc3ccc(NC(=O)Nc4cc(C(C)(C)C)on4)cc3)nc2)CC1(C)C`, the result in [22] and in series [23] was Active. For the same compound, the inhibition result in series [24] and in series [25] was “Active” throughout. The inhibition entry in series [18] was “Dose-dependent effect”.

In turn, `CCN1CCC(c2ccc(C(=O)Nc3ccc(NC(=O)Nc4cc(C(C)(C)C)on4)cc3)nc2)CC1` had an AUC in series [1] of 0.9 µM·h. The clearance in series [2] stood at 37.6 mL/min/kg. The compound further registered a bioavailability in series [3] of 9.9%.

As for `CN1C(C)(C)CC(Oc2ccc(C(=O)Nc3ccc(NC(=O)Nc4cc(C(C)(C)C)on4)cc3)nc2)CC1(C)C.CS(=O)(=O)O`, the solubility in series [19] is above 1000 µg/mL.

On to `CCN1CCC(Oc2ccc(C(=O)Nc3ccc(NC(=O)Nc4cc(C(C)(C)C)on4)cc3)nc2)CC1` [listing 2 of 2 here], for which, in series [18], the inhibition result is “Dose-dependent effect”.

As for `CC(C)(C)c1cc(NC(=O)Nc2ccc(NC(=O)c3ccc(OC4CCN(C5CC5)CC4)cn3)cc2)no1`, the AUC in series [1] turned out to be 9.5 µM·h. In [2], this compound gave a clearance of 12 mL/min/kg. In addition, in [3], the bioavailability is 36%.

With `CCN1CCC(Cc2ccc(C(=O)Nc3ccc(NC(=O)Nc4cc(C(C)(C)C)on4)cc3)nc2)CC1`, in series [1], the AUC was found to be 1.4 µM·h. Moreover, the clearance in series [2] amounted to 24 mL/min/kg. This compound also showed a bioavailability in [3] of 12%.
